Results from ChEMBL document CHEMBL1201862, “PubChem BioAssay data set” (2004).
Where a name gives a salt, the structure may show the parent alone. Activity calls are given as the source filed them.

Tests used:
[1] = target: Beta-2 adrenergic receptor (Homo sapiens, UniProt P07550); assay: ADRB2 activation measured by internalization – cell-based, FAP fluorogen, flow cytometry, cherry pick 1, dose response (AID 588763); format: functional
Keap1/Nrf2 = Keap1/Nrf2 (Homo sapiens, UniProt Q14145); assay: disruptors of Keap1 binding to Nrf2 peptide – biochemical, fluorescence polarization, cherry-picked samples, dose response (AID 588683)
Caspase-7 = Caspase-7 (Homo sapiens, UniProt P55210); assay: caspase-7 enzyme inhibition, selectivity check – biochemical, DEVD-R110 fluorescence, cherry-pick, selectivity assay for caspase-6 inhibitor project, dose response (AID 743295); format: functional
Caspase-6 = target: T1, Caspase-6 (Homo sapiens, UniProt P55212); assay: inhibition of CASP6 peptide cleavage – biochemical, VEID-R110 fluorescence, cherry-pick, dose response (AID 720632)
T1 sequence (P55212 whole entry): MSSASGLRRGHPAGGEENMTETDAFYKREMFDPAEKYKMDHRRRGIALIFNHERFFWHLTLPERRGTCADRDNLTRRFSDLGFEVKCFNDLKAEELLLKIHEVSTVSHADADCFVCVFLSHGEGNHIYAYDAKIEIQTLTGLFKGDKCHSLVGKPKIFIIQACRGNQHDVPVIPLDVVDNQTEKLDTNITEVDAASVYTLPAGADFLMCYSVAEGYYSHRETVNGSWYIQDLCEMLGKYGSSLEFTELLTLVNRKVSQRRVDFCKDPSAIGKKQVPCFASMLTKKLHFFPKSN

[2] = microbe, parasite or virus in culture; format: functional; details: Mycobacterium tuberculosis
[3] = target: Voltage-gated inwardly rectifying potassium channel KCNH2 (Homo sapiens, UniProt Q12809); details: Potency;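 further: confirmatory quantitative high-throughput screen measuring inhibition of hERG channel activity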
[4] = NIH-3T3 fibroblast cytotoxicity, dose response, cytotoxicity control, cell-based, fluorescence, Alamar Blue, secondary assay (AID 2327); format: functional;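 further: NIH-3T3 mouse fibroblasts cultured with fluconazole at 8 µg/mL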
Cytochrome P450 3A4 = Cytochrome P450 3A4 (Homo sapiens, UniProt P08684);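 further: CYP3A4 tested as one member of a cytochrome P450 panel screen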
[5] = target: Peroxisome proliferator-activated receptor gamma/Nuclear receptor coactivator 1 (Homo sapiens, UniProt P37231); assay: TR-FRET dose response biochemical High Throughput Screening assay for agonists of the steroid receptor coactivator 1 (SRC-1) recruitment by the peroxisome proliferator-activated receptor gamma (PPAR gamma): non-selective agonists. [Related pubchem assays (depositor defined):AID1300, AID1808, AID504735, AID631]; format: protein assay
[6] = target: Peroxisome proliferator-activated receptor gamma/Nuclear receptor coactivator 2 (Homo sapiens, UniProt P37231); assay: (§1) TR-FRET dose response biochemical High Throughput Screening assay for agonists of the steroid receptor coactivator 2 (SRC-2) recruitment by the peroxisome proliferator-activated receptor gamma (PPAR gamma): non-selective agonists. [Related pubchem assays: 1297, 1032 ]; format: functional
[7] = target: Peroxisome proliferator-activated receptor gamma/Nuclear receptor coactivator 3 (Homo sapiens, UniProt P37231); assay: as §1, with “3 (SRC-3)” for “2 (SRC-2)”, “1301 (Confirmation screen.), 1048 (Primary screen.)]” for “1297, 1032 ]”; format: functional
[8] = fluconazole-exposed Candida albicans growth modulators – fluorescence, retest, confirmation (AID 2467); format: functional, cell-based
[9] = target: Photoreceptor-specific nuclear receptor (Homo sapiens, UniProt Q9Y5X4); format: functional;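 further: potency for compounds that break the NR2E3 corepressor complex and count as activators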
[10] = target: ATP-dependent molecular chaperone HSP82 (Candida albicans (strain WO-1) (Yeast), UniProt C4YTQ8); assay: steroid-induced GRE reporter decrease in yeast – S. cerevisiae, luminescence, Hsp90 inhibitor project, dose response (AID 2400); format: functional, cell-based;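 further: beta-galactosidase luminescence from glucocorticoid response element reporter as proxy for Hsp90 function; inhibitor potency where signal loss means Hsp90 inhibition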
fMet-Leu-Phe receptor = fMet-Leu-Phe receptor (Homo sapiens, UniProt P21462); assay: formyl peptide receptor binders – dose response (AID 519); format: functional
[11] = target: Peroxisome proliferator-activated receptor gamma/Nuclear receptor corepressor 2 (Homo sapiens, UniProt P37231+Q9Y618); format: functional
[12] = target: Serine/threonine-protein phosphatase (Candida dubliniensis (strain CD36 / CBS 7987 / NCPF 3949 / NRRLY-17841) (Yeast), UniProt B9W6M3); assay: blockers of CaCl2-induced CDRE-lacZ signaling – S. cerevisiae, luminescence, secondary, dose response (AID 2388); format: functional, cell-based;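 further: yeast reporter cells carrying a calcineurin-responsive lacZ construct stimulated with calcium chloride; luminescent beta-galactosidase reporter signal in whole cells rather than isolated phosphatase activity; potency for inhibition where a drop in reporter signal means calcineurin blockade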
Cytochrome P450 2C19 = Cytochrome P450 2C19 (Homo sapiens, UniProt P33261); assay: Cytochrome panel assay with activity outcomes. Panel member name: p450-cyp2c19 Compounds with AC50 equal or less than 10 uM are considered active; format: functional; details: read-out: AC50
HeLa = assay: ATP-based viability loss in HeLa cells – cell-based, CellTiter-Glo luminescence, cherry-pick samples, cytotoxicity control for MITF activator project, dose response (AID 540259); format: functional; details: Homo sapiens

Chain of Keap1/Nrf2 (Q16236 whole entry): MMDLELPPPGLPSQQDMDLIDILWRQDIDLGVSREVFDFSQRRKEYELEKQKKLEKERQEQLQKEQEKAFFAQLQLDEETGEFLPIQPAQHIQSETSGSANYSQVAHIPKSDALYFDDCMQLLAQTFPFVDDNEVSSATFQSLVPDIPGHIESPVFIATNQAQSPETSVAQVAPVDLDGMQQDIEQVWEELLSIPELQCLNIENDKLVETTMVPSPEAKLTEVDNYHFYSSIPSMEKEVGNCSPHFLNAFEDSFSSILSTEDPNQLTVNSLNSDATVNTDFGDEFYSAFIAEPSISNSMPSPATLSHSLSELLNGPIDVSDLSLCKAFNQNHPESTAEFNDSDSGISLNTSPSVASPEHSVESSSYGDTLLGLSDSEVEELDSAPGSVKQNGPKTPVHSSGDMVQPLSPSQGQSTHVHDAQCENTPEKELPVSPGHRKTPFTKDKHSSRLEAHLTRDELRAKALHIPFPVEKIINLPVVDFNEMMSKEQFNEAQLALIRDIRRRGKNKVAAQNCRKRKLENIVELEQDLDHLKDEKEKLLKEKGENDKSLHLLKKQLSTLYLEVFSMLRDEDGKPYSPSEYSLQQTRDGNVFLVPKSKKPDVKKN
Chain of Keap1/Nrf2 (Q14145 whole entry): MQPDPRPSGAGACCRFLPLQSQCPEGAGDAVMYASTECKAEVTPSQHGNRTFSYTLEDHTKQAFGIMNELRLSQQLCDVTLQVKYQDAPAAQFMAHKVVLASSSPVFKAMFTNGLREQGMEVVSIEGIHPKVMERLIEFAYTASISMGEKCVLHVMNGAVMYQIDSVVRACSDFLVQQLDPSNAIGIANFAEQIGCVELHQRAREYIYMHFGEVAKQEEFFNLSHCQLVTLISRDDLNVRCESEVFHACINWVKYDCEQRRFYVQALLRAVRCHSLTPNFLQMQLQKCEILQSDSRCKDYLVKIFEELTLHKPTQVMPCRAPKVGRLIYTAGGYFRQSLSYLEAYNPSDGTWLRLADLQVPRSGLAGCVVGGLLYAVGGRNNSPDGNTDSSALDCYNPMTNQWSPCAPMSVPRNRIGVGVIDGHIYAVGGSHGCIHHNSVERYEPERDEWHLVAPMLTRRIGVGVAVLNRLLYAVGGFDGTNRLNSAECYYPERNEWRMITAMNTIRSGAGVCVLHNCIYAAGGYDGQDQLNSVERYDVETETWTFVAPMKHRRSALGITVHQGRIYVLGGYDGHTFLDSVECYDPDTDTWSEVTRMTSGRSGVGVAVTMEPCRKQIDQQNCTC
Chain of Caspase-7 (P55210 24-198 limits assumed): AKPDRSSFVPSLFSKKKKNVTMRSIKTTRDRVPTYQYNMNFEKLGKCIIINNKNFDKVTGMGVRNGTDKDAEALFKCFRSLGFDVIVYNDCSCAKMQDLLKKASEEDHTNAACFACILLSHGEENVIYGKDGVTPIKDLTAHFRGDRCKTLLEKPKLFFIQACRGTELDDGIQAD
Chain of Caspase-7 (P55210 207-303 limits assumed): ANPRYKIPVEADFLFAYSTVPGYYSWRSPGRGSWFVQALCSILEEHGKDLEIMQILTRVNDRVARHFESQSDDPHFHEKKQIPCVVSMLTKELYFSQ
Chain of Cytochrome P450 3A4 (P08684 whole entry): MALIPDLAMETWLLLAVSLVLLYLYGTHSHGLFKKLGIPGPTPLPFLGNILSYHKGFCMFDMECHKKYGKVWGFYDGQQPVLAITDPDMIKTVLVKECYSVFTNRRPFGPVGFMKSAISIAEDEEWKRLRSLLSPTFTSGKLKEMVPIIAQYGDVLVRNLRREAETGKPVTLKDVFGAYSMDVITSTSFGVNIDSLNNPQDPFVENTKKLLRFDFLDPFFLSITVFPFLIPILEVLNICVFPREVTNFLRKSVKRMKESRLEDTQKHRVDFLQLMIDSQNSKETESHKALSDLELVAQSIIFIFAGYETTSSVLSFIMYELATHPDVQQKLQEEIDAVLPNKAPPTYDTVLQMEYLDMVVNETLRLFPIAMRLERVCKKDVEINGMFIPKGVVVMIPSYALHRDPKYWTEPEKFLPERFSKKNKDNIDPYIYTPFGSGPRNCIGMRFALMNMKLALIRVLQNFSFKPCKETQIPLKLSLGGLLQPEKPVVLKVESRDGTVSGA
Chain of Photoreceptor-specific nuclear receptor (Q9Y5X4 whole entry): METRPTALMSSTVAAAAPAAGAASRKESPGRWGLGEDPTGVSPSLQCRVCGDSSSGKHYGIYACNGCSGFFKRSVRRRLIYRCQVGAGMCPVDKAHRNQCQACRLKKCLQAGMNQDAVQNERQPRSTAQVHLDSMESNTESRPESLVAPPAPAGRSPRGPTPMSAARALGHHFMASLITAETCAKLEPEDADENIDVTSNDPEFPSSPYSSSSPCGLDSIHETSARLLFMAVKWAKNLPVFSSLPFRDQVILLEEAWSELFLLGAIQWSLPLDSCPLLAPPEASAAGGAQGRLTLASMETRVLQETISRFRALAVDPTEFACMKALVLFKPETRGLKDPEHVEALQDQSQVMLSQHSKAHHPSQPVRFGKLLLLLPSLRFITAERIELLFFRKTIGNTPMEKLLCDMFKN
Chain of fMet-Leu-Phe receptor (P21462 whole entry): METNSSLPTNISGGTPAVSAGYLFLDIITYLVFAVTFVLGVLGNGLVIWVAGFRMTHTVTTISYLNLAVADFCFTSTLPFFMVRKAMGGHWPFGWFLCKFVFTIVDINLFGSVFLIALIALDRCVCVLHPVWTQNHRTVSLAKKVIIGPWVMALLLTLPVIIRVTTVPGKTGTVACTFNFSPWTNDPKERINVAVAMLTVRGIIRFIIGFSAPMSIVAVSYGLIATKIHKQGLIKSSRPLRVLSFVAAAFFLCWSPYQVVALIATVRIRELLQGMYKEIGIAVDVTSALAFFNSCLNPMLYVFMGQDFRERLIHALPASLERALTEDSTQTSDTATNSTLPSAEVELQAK
Chain of Serine/threonine-protein phosphatase (B9W6M3 whole entry): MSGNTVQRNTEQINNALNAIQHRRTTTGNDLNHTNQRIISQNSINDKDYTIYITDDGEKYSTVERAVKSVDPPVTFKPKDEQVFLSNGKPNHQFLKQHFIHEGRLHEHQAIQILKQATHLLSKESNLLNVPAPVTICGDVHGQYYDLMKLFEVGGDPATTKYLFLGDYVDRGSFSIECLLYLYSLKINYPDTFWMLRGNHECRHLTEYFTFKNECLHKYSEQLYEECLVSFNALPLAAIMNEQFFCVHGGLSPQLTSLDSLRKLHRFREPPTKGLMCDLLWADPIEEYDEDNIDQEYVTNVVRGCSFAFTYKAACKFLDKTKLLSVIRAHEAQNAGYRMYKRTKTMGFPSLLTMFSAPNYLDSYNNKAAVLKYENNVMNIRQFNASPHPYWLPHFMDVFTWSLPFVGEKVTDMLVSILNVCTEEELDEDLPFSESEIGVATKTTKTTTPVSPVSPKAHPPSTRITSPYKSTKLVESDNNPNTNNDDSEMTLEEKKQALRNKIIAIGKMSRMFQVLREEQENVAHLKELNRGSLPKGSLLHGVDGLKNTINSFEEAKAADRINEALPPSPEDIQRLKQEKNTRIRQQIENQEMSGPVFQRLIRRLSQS
Chain of Beta-2 adrenergic receptor (P07550 whole entry): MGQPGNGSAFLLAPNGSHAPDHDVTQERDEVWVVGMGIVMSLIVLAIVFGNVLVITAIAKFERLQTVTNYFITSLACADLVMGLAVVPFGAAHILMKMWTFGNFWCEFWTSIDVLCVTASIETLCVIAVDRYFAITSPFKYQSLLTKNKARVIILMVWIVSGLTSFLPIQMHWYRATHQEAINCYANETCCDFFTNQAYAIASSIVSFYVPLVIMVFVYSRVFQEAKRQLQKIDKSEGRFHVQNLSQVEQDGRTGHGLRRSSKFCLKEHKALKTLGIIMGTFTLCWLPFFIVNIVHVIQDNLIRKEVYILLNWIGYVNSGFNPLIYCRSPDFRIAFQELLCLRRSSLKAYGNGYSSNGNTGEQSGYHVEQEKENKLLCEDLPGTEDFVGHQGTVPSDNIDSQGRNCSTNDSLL
Chain of Voltage-gated inwardly rectifying potassium channel KCNH2 (Q12809 whole entry): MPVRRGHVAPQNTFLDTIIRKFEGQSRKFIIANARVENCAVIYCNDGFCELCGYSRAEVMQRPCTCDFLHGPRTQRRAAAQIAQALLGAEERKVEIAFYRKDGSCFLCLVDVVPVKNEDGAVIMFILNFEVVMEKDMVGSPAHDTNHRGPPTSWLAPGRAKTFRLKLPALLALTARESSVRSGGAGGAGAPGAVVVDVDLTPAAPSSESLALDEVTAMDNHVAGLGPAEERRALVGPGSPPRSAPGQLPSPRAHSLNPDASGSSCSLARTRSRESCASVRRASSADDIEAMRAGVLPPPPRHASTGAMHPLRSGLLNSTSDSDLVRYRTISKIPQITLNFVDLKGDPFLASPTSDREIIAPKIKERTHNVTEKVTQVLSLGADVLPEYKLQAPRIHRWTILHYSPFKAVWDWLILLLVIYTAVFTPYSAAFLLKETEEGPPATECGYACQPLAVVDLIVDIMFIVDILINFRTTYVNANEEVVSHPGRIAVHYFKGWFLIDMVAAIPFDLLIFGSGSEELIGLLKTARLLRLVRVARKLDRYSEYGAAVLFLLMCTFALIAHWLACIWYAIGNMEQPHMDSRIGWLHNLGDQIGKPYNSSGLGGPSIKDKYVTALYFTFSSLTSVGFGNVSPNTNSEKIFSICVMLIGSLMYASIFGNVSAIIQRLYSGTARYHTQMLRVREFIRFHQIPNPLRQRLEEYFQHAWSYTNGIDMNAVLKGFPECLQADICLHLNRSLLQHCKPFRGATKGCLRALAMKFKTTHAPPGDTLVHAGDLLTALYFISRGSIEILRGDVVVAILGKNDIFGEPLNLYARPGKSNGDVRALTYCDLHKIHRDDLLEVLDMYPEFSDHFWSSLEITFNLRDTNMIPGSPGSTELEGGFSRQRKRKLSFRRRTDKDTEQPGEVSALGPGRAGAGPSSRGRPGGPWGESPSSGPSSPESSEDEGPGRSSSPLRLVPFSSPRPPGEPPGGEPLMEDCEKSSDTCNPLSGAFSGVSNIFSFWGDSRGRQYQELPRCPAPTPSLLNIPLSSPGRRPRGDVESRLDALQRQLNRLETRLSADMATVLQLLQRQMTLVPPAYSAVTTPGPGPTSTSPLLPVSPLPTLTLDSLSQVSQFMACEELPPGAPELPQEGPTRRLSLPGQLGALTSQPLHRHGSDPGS

In the case of `O=C(Cn1nc(-c2ccccc2)ccc1=O)Nc1ccc(NC(=O)c2ccccn2)cc1`, the EC50 [1] is reported as 0.00816 µM (active).

For `Cc1oc2c(cc(NS(=O)(=O)c3ccc(C(C)C)cc3)c3ccccc32)c1C(=O)O`, the AC50 (Keap1/Nrf2) was 21.7 µM (active), the AC50 (Caspase-7) was > 70 µM (inactive) and the AC50 (Caspase-6) was 4 µM (active).

For `CN1CCN2c3ccccc3Cc3ccccc3C2C1` (centres undefined) [MIANSERIN HYDROCHLORIDE], the CC50 [2] was > 40 µM (active) and the AC50 [3] was 35.5 µM (inconclusive).

With `COc1cccc(C2C(C(=O)c3cc4ccccc4o3)=C(O)C(=O)N2c2cc(C)on2)c1OC` (centres undefined) the EC50 [4] was > 150 µM (inactive), the AC50 (Cytochrome P450 3A4) was 28.2 µM (inconclusive) and the EC50 [5] was 35.9 µM (inactive). The EC50 [6] was 9.84 µM (active), the EC50 [7] was > 79.4 µM (not active) and the EC50 [8] was 0.61 µM (active). For the same molecule, the IC50 [9] was > 39.8 µM (not active), the EC50 [10] was 17.2 µM (active) and the Ki (fMet-Leu-Phe receptor) was > 66.7 µM (inactive). The IC50 [11] was 4.97 µM (active), the EC50 [12] was > 180 µM (inactive) and the AC50 (Cytochrome P450 2C19) was 15.8 µM (inconclusive).

With `c1ccc(Cc2cc(-c3ccccc3)on2)cc1` the AC50 (HeLa) was 253 µM (active).
